Test results reported in patent US20200071675A1, “METHOD FOR PRODUCING ENDOTHELIAL CELLS” (TAKARA BIO INC., priority 2016, published 2020).
Read-outs that look alike come from different tables or passages of the source.

Columns and labels:
[1] = system: KDR-positive vascular endothelial progenitor cells from human iPS cells (ChiPSC12 strain); experiment: CD31-positive cell ratio (endothelial cell marker) by flow cytometry; assay type: cell-based
Protocol: Human iPS cells ([…]) were cultured in DEF-CS medium (Cellartis) in accordance with the instructions attached to the medium. In order to efficiently induce differentiation of mesodermal cells, iPS cells were coated with Matrigel (Matrigel Sandwich method) in accordance with the following procedures. […] Here, SB431542, another TGF-β inhibitor, was used as a negative control. The cells were collected at Day 11, and the cell numbers were counted.

[2] = system: KDR-positive vascular endothelial progenitor cells from human iPS cells (ChiPSC12 strain); experiment: Cell numbers during differentiation of iPS cell-derived vascular endothelial progenitor cells cultured with a TGF-β inhibitor (Days 8 to 11); assay type: cell-based; settings: for Cell Numbers (Day 19) / Cell Numbers (Day 30): cell numbers at Day 8 defined as 1
[3] = system: vascular endothelial cells induced from human iPS cells (ChiPSC12 strain); experiment: Freezing and thawing of vascular endothelial cells induced with RepSox; settings: cells induced with 20 μM RepSox, collected Days 18 to 22, stored in liquid nitrogen for 3 days, thawed at 37° C.
Protocol: The collected cells were washed, and suspended in Stem Cell Banker (TAKARA BIO INC.) so as to have a cell concentration of 3×10^6/mL, and 1 mL of each of the suspension was dispensed to vials. The vials were placed in a frozen-treated vessel (BICELL, Nihon Freezer Co., Ltd.), and the cells were subjected to slow freezing in a freezing storage chamber held at a temperature of −80° C. Thereafter, each vial was transferred to a liquid nitrogen, and stored for 3 days.
The frozen cells were warmed for 2 minutes and 30 seconds with a water bath warmed to 37° C., to thaw the cells. […] An entire amount of the remaining cells was added to a tube to which 8 mL of a medium for proliferating endothelial cells had been dispensed in advance. Thereafter, a vial was rinsed with 1 mL of a medium for proliferating endothelial cells, and a rinsed medium was added to the tube. The tube was centrifuged at 200×g for 5 minutes, and the supernatant was then discarded. The cells were suspended in a fresh medium for culturing endothelial cells, and the cells were seeded at a density of 2×10^4 cells/cm^2 to a culture vessel. […]
The cells were collected on a seventh day after thawing the cells, and the cell numbers were counted. At the same time, the CD31-positive cell ratio, an endothelial cell marker, was measured with a flow cytometry.

[4] = system: KDR-positive vascular endothelial progenitor cells from human iPS cells (ChiPSC12 strain)
Protocol: Human iPS cells (ChiPSC12 strain) were cultured in DEF-CS medium in accordance with the instructions attached to the medium.
TrypLE(trademark) Select was added to iPS cells that had been subcultured, and the cells were incubated at 37° C. for 3 to 7 minutes. The detached cells were collected as a single cell by pipetting, and the cell numbers were counted. […] Thereafter, the medium was exchanged with DEF-CS medium added with Matrigel diluted to 1:60, and the cells were cultured for additional 16 to 24 hours, thereby coating an upper layer of the cells with Matrigel.
The Matrigel-coated iPS cells obtained were differentiated into mesodermal cells in accordance with the following procedures. First, a medium of the Matrigel-coated iPS cells was exchanged with RPMI 1640 medium added with 100 ng/mL activin A, 2 mM GlutaMAX(trademark), and B27 supplement (without containing insulin) (this time point being defined as the beginning of the induction of differentiation=Day 0), and the cells were cultured for 24 hours (Day 1). Next, the medium was exchanged with RPMI 1640 medium added with 10 ng/mL hBMP4, 10 ng/mL hbFGF, 2 mM GlutaMAX, and B27 supplement, and the cells were cultured for 3 days (Day 4). Thereafter, the medium was exchanged with RPMI 1640 medium added with 100 ng/mL VEGF, 2 mM GlutaMAX, and B27 supplement, and the cells were cultured overnight (Day 5).
KDR-positive cells were separated from the cultured cells at Day 5 by using the magnetic-activated cell sorting, thereby isolating vascular endothelial progenitor cells. In order to separate the KDR-positive cells, an anti-KDR antibody to which a PE fluorescent label was bound was used as a primary antibody for labeling cells, and cells labeled with the primary antibody were collected with magnetic beads embedding anti-PE antibodies. […] Further, the medium at Day 6 was exchanged with RPMI 1640 medium added with B27 supplement, 50 units/mL penicillin, 50 μg/mL streptomycin, 2 mM GlutaMAX, and 100 ng/mL VEGF, and the cells were cultured for 2 days (Day 8).
Here, CD31 is a marker of endothelial cells, and CD34 is a marker of hematopoietic stems cells or endothelial progenitor cells. In addition, CD34 is also expressed in juvenile endothelial cells.

| SMILES | CD31-Positive (Day 19) ([1]; 10 μM inhibitor Days 8 to 11) [%] | CD31-Positive (Day 30) ([1]; 10 μM inhibitor Days 8 to 11) [%] | CD31-Positive (Day 19) ([1]; 20 μM inhibitor Days 8 to 11) [%] | CD31-Positive (Day 30) ([1]; 20 μM inhibitor Days 8 to 11) [%] | Cell Numbers (Day 19) ([2]; 10 μM inhibitor Days 8 to 11) | Cell Numbers (Day 30) ([2]; 10 μM inhibitor Days 8 to 11) | Cell Numbers (Day 19) ([2]; 20 μM inhibitor Days 8 to 11) | Cell Numbers (Day 30) ([2]; 20 μM inhibitor Days 8 to 11) | other results |
| --- | --- | --- | --- | --- | --- | --- | --- | --- | --- |
| Cc1cccc(-c2[nH]ncc2-c2ccc3ncccc3n2)n1 [RepSox] | 99.7 | 99.0 | 99.8 | 99.1 | 3.5 | 9.1 | 3.5 | 3.1 | CD31-Positive (Day 19) ([1]; 3 μM inhibitor Days 8 to 11): 98.9%; CD31-Positive (Day 30) ([1]; 3 μM inhibitor Days 8 to 11): 87.0%; CD31-positive ratios (Day 30) ([1]; text summary: 'in both the media containing 3 μM RepSox'): ≥ 87%; Cell Numbers (Day 19) ([2]; 3 μM inhibitor Days 8 to 11): 3.1; Cell Numbers (Day 30) ([2]; 3 μM inhibitor Days 8 to 11): 2.5; cell proliferation rates at Day 30 ([2]; text summary: 'in both the media containing 3 μM RepSox', relative to Day 8 = 1): ≥ 2.5; cell viability after thawing [3]: 87%; CD31+/CD34+ (Day 13) ([4]; 3 μM RepSox Day 8 to 11): 96.9%; CD31+/CD34+ (Day 18) ([4]; 3 μM RepSox Day 8 to 11): 93.3%; CD31+/CD34+ (Day 13) ([4]; 10 μM RepSox Day 8 to 11): 96.1%; CD31+/CD34+ (Day 18) ([4]; 10 μM RepSox Day 8 to 11): 94.4%; CD31+/CD34+ (Day 13) ([4]; 20 μM RepSox Day 8 to 11): 95.8%; CD31+/CD34+ (Day 18) ([4]; 20 μM RepSox Day 8 to 11): 96.1%; CD31+/CD34+ cells at Day 13 ([4]; regardless of the concentrations of RepSox (3, 10, 20 μM)): ≥ 95% |
| NC(=O)c1ccc(-c2nc(-c3ccc4c(c3)OCO4)c(-c3ccccn3)[nH]2)cc1 [SB431542] | 97.7 | 89.4 | 98.7 | 33.0 | 1.3 | 0.9 | 2.3 | 5.1 | – |
